Results: PMC3361708 (Cell Metabolism, 2012)

Target: T1, mAdpn (Mus musculus, UniProt Q91WW7)
T1 sequence (Q91WW7 1-413): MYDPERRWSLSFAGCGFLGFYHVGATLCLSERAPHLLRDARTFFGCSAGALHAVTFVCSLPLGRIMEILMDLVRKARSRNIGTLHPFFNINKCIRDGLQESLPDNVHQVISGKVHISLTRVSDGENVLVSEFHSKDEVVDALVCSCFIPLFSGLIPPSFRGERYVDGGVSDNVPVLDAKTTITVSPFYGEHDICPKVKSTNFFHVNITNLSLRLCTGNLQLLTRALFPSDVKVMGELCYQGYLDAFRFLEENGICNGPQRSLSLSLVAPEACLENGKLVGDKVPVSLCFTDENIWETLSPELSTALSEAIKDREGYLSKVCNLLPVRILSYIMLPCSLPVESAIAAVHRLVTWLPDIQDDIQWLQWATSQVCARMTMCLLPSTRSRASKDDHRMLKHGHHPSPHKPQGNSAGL
Experiment: radiometric LPAAT assay, TLC, Michaelis-Menten fit
Type: biochemical
Details: co-substrate LPA; labelled compound [1-14C]

## CCCCCCCC/C=C\CCCCCCCC(=O)SCCNC(=O)CCNC(=O)[C@H](O)C(C)(C)COP(=O)(O)OP(=O)(O)OC[C@H]1O[C@@H](n2cnc3c(N)ncnc32)[C@H](O)[C@@H]1OP(=O)(O)O [oleoyl-CoA]
  Km: 12.5 µM
